Assay results: US6020345A, “Pyridin-2-yl-methylamine derivatives, method of preparing and application as medicine” (Pierre Fabre Medicament, priority 1996, dated 2000)
Read-outs that look alike come from different tables or passages of the source.

Experiments:
5-HT1A receptors [1] = molecular target: T1, 5-HT1A receptors (Rattus norvegicus, UniProt P19327); test: In vitro affinity for the 5-HT1A receptors by displacement of (^3 H)8-OH-DPAT; type: binding; design: rat cerebral cortices are used; from tissue; host or cells: rat cerebral cortex; settings: for affinity for the 5-HT1A receptors (in words): in vitro; for pKi 5-HT1A: mean of at least 3 experiments, rat cerebral cortex, (^3 H)8-OH-DPAT; for 5-HT1A /D2 Selectivity: ratio of affinity constants (Ki) D2 /(Ki) 5-HT1A
T1 sequence (P19327 1-422): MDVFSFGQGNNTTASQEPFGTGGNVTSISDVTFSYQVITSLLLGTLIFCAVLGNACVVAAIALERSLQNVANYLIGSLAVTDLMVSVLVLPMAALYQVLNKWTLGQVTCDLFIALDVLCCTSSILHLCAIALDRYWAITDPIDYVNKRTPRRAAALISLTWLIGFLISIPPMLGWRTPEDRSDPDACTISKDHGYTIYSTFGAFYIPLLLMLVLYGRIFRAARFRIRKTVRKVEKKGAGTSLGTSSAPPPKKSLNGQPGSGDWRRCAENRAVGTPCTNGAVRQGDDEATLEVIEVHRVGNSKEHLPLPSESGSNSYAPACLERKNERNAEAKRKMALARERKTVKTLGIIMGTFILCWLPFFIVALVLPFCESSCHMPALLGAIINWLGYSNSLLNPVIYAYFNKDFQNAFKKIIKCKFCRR
Procedure: 1-Measurement of the affinity of the compounds of the invention for the 5-HT1A receptors
The study of binding to the 5-HT1A receptor was carried out as described by Sleight and Peroutka (Naunyn-Schmiedeberg's Arch. Pharmaco. 1991, 343, 106-16). For these experiments, rat cerebral cortices are used. After thawing the brain in 50 mmol Tris-HCl buffer, pH=7.40 at 25° C., the cerebral cortex is removed and homogenized in 20 volumes of buffer maintained at 4° C. The homogenate is centrifuged at 39,000 g for 10 minutes, the centrifugation pellet is suspended in the same volume of buffer and again centrifuged. After suspending again under the same conditions, the homogenate is incubated for 10 minutes at 37° C. and then centrifuged again. The final pellet is suspended in cold 50 mmol Tris-HCl reaction buffer, pH=7.40 at 25° C. containing 10 mmol of pargyline, 4 mmol of CaCl2 and 0.10% of ascorbic acid. The final concentration of tissue in the incubation medium is 10 mg/tube.
Nonspecific binding is defined using 10 mmol of 5-HT. The reaction tubes are incubated at 23° C. for 30 minutes and then their content is rapidly filtered under vacuum on Whatman GF/B filters, the tubes are rinsed twice with 5 ml of 50 mmol Tris-HCl buffer, pH=7.4 at 25° C. The radioactivity collected on the filter is analyzed by liquid scintillation by adding 4 ml of scintillation fluid (Emulsifier Safe, Packard). All the experiments are carried out in triplicate.
(§1) The inhibition constants (Ki) of the products of the invention are estimated from displacement experiments using the nonlinear regression program RADLIG version 4 from EBDA (Equilibrium Binding Data Analysis) (Biosoft, Cambridge, UK, McPherson, 1985). […] The pKi (-logKi) values are given in the form of the mean ±SEM of at least 3 experiments.

5-HT1A receptors [2] = molecular target: T1, 5-HT1A receptors; test: In vivo 5-HT1A agonist activity: lower lip retraction (LLR) in rats after oral administration; design: Sprague Dawley male rats; from tissue; host or cells: whole animal, Sprague Dawley male rats (central nervous system); species or system rat (Sprague Dawley male); settings: 1 h
Description: 3-Evaluation of the agonist activity of the 5-HT1A receptors of the compounds of the invention in vivo
Sprague Dawley male rats (ICO: OFAD [IOPS], Iffa Credo, France) weighing 160-180 g on their arrival and 180-200 g at the beginning of the tests are used. The animals are quarantined for 4 to 8 days with free access to standard laboratory food before their use in the experiments. Animals are housed individually in plastic cages on a support, (28 cm×21 cm×18 cm) with a floor having a wire mesh covering (RC Iffa Credo), 24 hours before the tests. Water filtered on 0.22 μm is available ad libitum by means of an automatic dispenser. The quarantine area and the experimentation laboratory are air-conditioned (temperature: 22±1° C.; relative humidity: 55±5%) and illuminated from 07:00 to 19:00. All the rats are treated in accordance with laboratory animal ethics (Guide for the Care and Use of Laboratory Animals, U.S. Department of Agriculture. Public Health Service. National Institutes of Health publication No. 85-23, Revised 1985), and the protocol (No. 15) is carried out in accordance with the recommendations of the local ethics committee on animal research.
The methods used are essentially identical to those described previously (Drug. Dev. Res. 1992, 26, 21-48; Eur. J. Pharmacol. 1995, 281, 219-28).
The behavior of the animal is observed for a period of 10 minutes each, centred on t60 minutes, after administration by the oral route. Four animals are observed individually during the 10 minute period (from t55 to t65); the 4 rats are observed in turn, every 15 seconds, duration of observation 10 seconds per animal. During each of these observation periods, the presence (1) or absence (0) of lower lip retraction (LLR) in the animal is noted. […] This cycle is repeated 10 times over a period of 10 minutes; thus, the frequency of a behavior may vary from 0 to 10 for each observation period. Each day, two animals from each group receive the same dose of the same product.
The products are dissolved in distilled water or suspended in an aqueous solution of Tween 80 (2 drops/10 ml of distilled water). The products are administered in a volume of 10 ml/kg and the doses are expressed in basal weight. The order of administration of the products and of the doses is randomized.

[3] = molecular target: T2, D2 dopaminergic receptors (Rattus norvegicus, UniProt P61169); test: In vitro affinity for the D2 dopaminergic receptors by displacement of (^3 H) YM-09151-2; type: binding
T2 construct: rat striatum is used; from tissue; host or cells: rat striatum
T2 sequence (P61169 whole entry): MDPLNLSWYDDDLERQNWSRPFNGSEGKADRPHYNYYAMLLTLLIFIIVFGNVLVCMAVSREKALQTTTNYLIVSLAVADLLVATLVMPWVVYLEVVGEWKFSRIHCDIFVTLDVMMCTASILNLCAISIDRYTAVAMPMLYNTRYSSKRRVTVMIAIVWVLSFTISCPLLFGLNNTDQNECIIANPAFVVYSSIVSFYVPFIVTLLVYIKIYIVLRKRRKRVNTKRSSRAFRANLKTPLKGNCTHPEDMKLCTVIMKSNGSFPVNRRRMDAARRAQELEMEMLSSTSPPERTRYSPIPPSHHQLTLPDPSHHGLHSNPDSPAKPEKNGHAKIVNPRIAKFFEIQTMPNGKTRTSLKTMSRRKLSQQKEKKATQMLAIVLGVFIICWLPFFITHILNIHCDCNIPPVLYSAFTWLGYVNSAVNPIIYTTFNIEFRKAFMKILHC
Procedure: 2-Measurement of the affinity of the compounds of the invention for the D2 receptors
The in vitro affinity of the compounds of the invention for the D2 dopaminergic receptors was determined by measuring the displacement of (^3 H) YM-09151-2 (NET-1004 70-87 Ci/mmol). The study of binding to the D2 receptor is carried out as described by Niznik (Naunyn-Schmiedeberg's Arch. Pharmacol. Methods, 1985, 329, 333-38). For these experiments, rat striatum is used. After thawing the brain in 50 mmol Tris-HCl buffer, pH=7.40 at 25° C., the striatum is collected and homogenized in 40 volumes of buffer maintained at 4° C. The homogenate is centrifuged at 20,000 g for 10 minutes, the centrifugation pellet is suspended in the same volume of buffer and again centrifuged. The final pellet is suspended in cold 50 mmol Tris-HCl reaction buffer, pH=7.40 at 25° C. containing 120 mmol of NaCl and 5 mmol of KCl. The final concentration of tissue in the incubation medium is 2 mg/tube. The reaction tubes contain 0.20 ml of [^3 H]YM-09151-2 (0.05 mmol final), 0.20 ml of product to be tested 6-7 concentrations and 1.60 ml of tissue. Nonspecific binding is defined using 1 mmol of (+)-Butaclamol. The reaction tubes are incubated at 23° C. for 60 minutes and then their content is rapidly filtered under vacuum on Whatman GF/B filters, the tubes are rinsed twice with 5 ml of 50 mmol Tris-HCl buffer, pH=7.40 at 25° C. The radioactivity collected on the filter is analyzed by liquid scintillation by adding 4 ml of scintillation fluid (Emulsifier Safe, Packard). All the experiments are carried out in triplicate.
as §1

[4] = po, read-out: LLR p.o (60 minutes) ED50
[5] = mean of at least 3 experiments, rat striatum, (^3 H)YM-09151-2
[6] = read-out: LLR p.o (60 minutes) ED50, oral, observed t55 to t65 minutes
[7] = mean of at least 3 experiments, rat striatum, (^3 H)YM-09151-2, read-out: pKi D2 (converted)

Structure (SMILES) | affinity for the 5-HT1A receptors (in words) (5-HT1A receptors [1]) | ED50 (5-HT1A receptors [2]; [4]) [mg/kg] | pKi D2 [3, 5] | ED50 (5-HT1A receptors [2]; [6]) [mg/kg] | pKi 5-HT1A (5-HT1A receptors [1]) | 5-HT1A /D2 Selectivity (5-HT1A receptors [1]) | Ki [3] [µM] | Ki (5-HT1A receptors [1]; read-out: pKi 5-HT1A (converted)) [µM] | Ki [3, 7] [µM]
CCCN(CCC)C1CCc2cccc(O)c2C1 (stereo not shown) [8-OH-DPAT, 7-dipropylamino-5,6,7,8-tetrahydronaphthalen-1-ol, reference compound] | high affinity for the 5-HT1A receptors | 5 | 6.26 | – | – | – | – | – | –
O=C1CC2(CCCC2)CC(=O)N1CCCCN1CCN(c2ncccn2)CC1 [Buspirone, reference compound] | high affinity for the 5-HT1A receptors | – | – | 20 | – | – | – | – | –
CNc1cccc(CNCC2(F)CCN(C(=O)c3ccc(Cl)c(Cl)c3)CC2)n1 [I-11] | – | – | 6.40 | 0.31 | 9.67 | 1862 | – | – | –
CN(C)c1cccc(CNCC2(F)CCN(C(=O)c3ccc(F)c(Cl)c3)CC2)n1 [I-13, (3-chloro-4-fluoro-phenyl)-(4-fluoro-4-{[(6-dimethylaminopyridin-2-yl-methyl)amino]methyl}-piperidin-1-yl)methanone] | – | – | 6.56 | 0.31 | 9.92 | 2291 | – | – | –
CN(C)c1cccc(CNCC2(F)CCN(C(=O)c3ccc(Cl)c(Cl)c3)CC2)n1 [I-14, (3,4-dichlorophenyl)-(4-fluoro-4-{[(6-dimethylaminopyridin-2-yl-methyl)amino]methyl}piperidin-1-yl)-methanone] | – | – | 6.48 | 0.31 | 9.61 | 1349 | – | – | –
O=C(c1ccc(F)c(Cl)c1)N1CCC(F)(CNCc2cccc(-c3ccco3)n2)CC1 [I-32, (3-chloro-4-fluorophenyl)-(4-fluoro-4-{[(6-furan-2-yl-pyridin-2-yl-methyl)amino]methyl}-piperidin-1-yl)methanone] | – | – | 5.65 | 0.31 | 9.55 | 7942 | – | – | –
CNc1nc(CNCC2(F)CCN(C(=O)c3ccc(F)c(Cl)c3)CC2)ccc1C [I-55, (3-chloro-4-fluoro-phenyl)-(4-fluoro-4-{[(5-methyl-6-methylaminopyridin-2-ylmethyl)amino]-methyl}piperidin-1-yl)methanone] | – | 0.08 | – | – | 10.12 | 16982 | 1.29 | – | –
O=C(c1ccc(F)c(Cl)c1)N1CCC(F)(CNCc2cccc(N3CCC3)n2)CC1 [I-56] | – | – | – | 0.08 | – | 7414 | – | 0.000138 | 1.02
CCNc1cccc(CNCC2(F)CCN(C(=O)c3ccc(F)c(Cl)c3)CC2)n1 [I-58] | – | – | – | 0.31 | 9.73 | 1259 | – | – | 0.234
CNc1cccc(CNCC2(F)CCN(C(=O)c3ccc(F)c(Cl)c3)CC2)n1 [I-59] | – | – | – | 0.31 | 9.69 | 5011 | – | – | 1.02
Cc1ccc(CNCC2(F)CCN(C(=O)c3ccc(F)c(Cl)c3)CC2)nc1N(C)C [I-61, (3-chloro-4-fluoro-phenyl)-(4-fluoro-4-{[(5-methyl-6-dimethylaminopyridin-2-yl-methyl)amino]-methyl}piperidin-1-yl)methanone] | – | – | – | 0.08 | 9.50 | 1906 | – | – | 0.603
O=C(c1ccc(F)c(Cl)c1)N1CCC(F)(CNCc2cccc(-c3cc[nH]n3)n2)CC1 [I-62] | – | – | – | 0.31 | 9.34 | 16594 | – | – | 7.59
Cc1ccc(CNCC2(F)CCN(C(=O)c3ccc(Cl)c(Cl)c3)CC2)nc1 [I-65] | – | – | – | 0.31 | 9.24 | > 10000 | – | – | > 10
